Laboratory results from the supplement of paper PMC10307832.

Experiments:
Test in all cases: relative viability (nuclei count vs DMSO), 5 days (fraction); higher = more cells survive
AT9283 + Alpelisib = compound: O=C(Nc1c[nH]nc1-c1nc2ccc(CN3CCOCC3)cc2[nH]1)NC1CC1 [AT9283] + Cc1nc(NC(=O)N2CCC[C@H]2C(N)=O)sc1-c1ccnc(C(C)(C)C(F)(F)F)c1 [Alpelisib] (partner 2 µM)
Outline: (§1)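 Lung cancer cell lines in 1536-well plates got either a single drug or a fixed anchor-drug dose together with five library-drug doses (not always all listed) in √10 steps, by pin tool, on the day after seeding. Nuclei were counted after 5 days, and relative viability is the treated-to-vehicle ratio of nuclei counts. Values are medians of duplicate plates.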

AT9283 + Foretinib = compound: O=C(Nc1c[nH]nc1-c1nc2ccc(CN3CCOCC3)cc2[nH]1)NC1CC1 [AT9283] + COc1cc2c(Oc3ccc(NC(=O)C4(C(=O)Nc5ccc(F)cc5)CC4)cc3F)ccnc2cc1OCCCN1CCOCC1 [Foretinib] (partner 0.25 µM)
Outline: as §1

AT9283 + Dasatinib = compound: O=C(Nc1c[nH]nc1-c1nc2ccc(CN3CCOCC3)cc2[nH]1)NC1CC1 [AT9283] + Cc1nc(Nc2ncc(C(=O)Nc3c(C)cccc3Cl)s2)cc(N2CCN(CCO)CC2)n1 [Dasatinib] (partner 0.075 µM)
Outline: as §1

Erlotinib + OSI-027 = compound: C#Cc1cccc(Nc2ncnc3cc(OCCOC)c(OCCOC)cc23)c1 [Erlotinib] + COc1cccc2cc(-c3nc([C@H]4CC[C@H](C(=O)O)CC4)n4ncnc(N)c34)[nH]c12 [OSI-027] (partner 0.5 µM)
Outline: as §1

Erlotinib + Pemetrexed = compound: C#Cc1cccc(Nc2ncnc3cc(OCCOC)c(OCCOC)cc23)c1 [Erlotinib] + Nc1nc2[nH]cc(CCc3ccc(C(=O)N[C@@H](CCC(=O)O)C(=O)O)cc3)c2c(=O)[nH]1 [Pemetrexed] (partner 0.2 µM)
Outline: as §1

Row | Cell Line | relative viability (AT9283 + Alpelisib; first compound 0.003 µM) | relative viability (AT9283 + Alpelisib; first compound 0.03 µM) | relative viability (AT9283 + Alpelisib; first compound 0.09487 µM) | relative viability (AT9283 + Alpelisib; first compound 0.3 µM) | relative viability (AT9283 + Foretinib; first compound 0.003 µM) | relative viability (AT9283 + Foretinib; first compound 0.03 µM) | relative viability (AT9283 + Foretinib; first compound 0.09487 µM) | relative viability (AT9283 + Foretinib; first compound 0.3 µM) | relative viability (AT9283 + Dasatinib; first compound 0.003 µM) | relative viability (AT9283 + Dasatinib; first compound 0.03 µM) | relative viability (AT9283 + Dasatinib; first compound 0.09487 µM) | relative viability (AT9283 + Dasatinib; first compound 0.3 µM) | relative viability (Erlotinib + OSI-027; first compound 0.02 µM) | relative viability (Erlotinib + OSI-027; first compound 0.2 µM) | relative viability (Erlotinib + OSI-027; first compound 0.6325 µM) | relative viability (Erlotinib + OSI-027; first compound 2 µM) | relative viability (Erlotinib + Pemetrexed; first compound 0.02 µM) | relative viability (Erlotinib + Pemetrexed; first compound 0.2 µM) | relative viability (Erlotinib + Pemetrexed; first compound 0.6325 µM) | relative viability (Erlotinib + Pemetrexed; first compound 2 µM)
1 | LCLC-103H | 0.89 | 1.09 | 1.11 | 0.332 | 0.737 | 0.732 | 0.258 | 0.219 | 0.433 | 0.486 | 0.428 | 0.296 | 0.537 | 0.469 | 0.43 | 0.417 | 0.502 | 0.449 | 0.476 | 0.45
2 | NCI-H1666 | 1.04 | 0.736 | 0.363 | 0.291 | 1.01 | 0.725 | 0.534 | 0.496 | 0.866 | 0.682 | 0.574 | 0.431 | 0.83 | 0.741 | 0.624 | 0.565 | 0.81 | 0.693 |  | 0.753
3 | LC-2-ad | 0.933 | 0.319 | 0.106 | 0.107 | 0.881 | 0.71 | 0.336 | 0.225 | 0.456 | 0.291 | 0.177 | 0.187 |  | 0.837 | 0.725 | 0.475 | 0.307 | 0.279 | 0.274 | 0.262
4 | IA-LM | 0.891 | 0.418 | 0.199 | 0.0959 | 1.21 | 0.391 | 0.105 | 0.0774 |  |  |  |  |  |  |  |  |  |  |  | 
5 | ABC-1 | 0.957 | 0.238 | 0.269 | 0.355 | 1.02 | 0.15 | 0.178 | 0.153 | 0.498 | 0.178 | 0.196 | 0.207 | 0.582 | 0.386 | 0.361 | 0.346 |  |  |  | 
6 | ChaGo-K-1 |  |  |  |  | 0.918 | 0.521 | 0.319 | 0.268 | 0.547 | 0.504 | 0.225 | 0.257 | 0.695 | 0.55 | 0.549 | 0.434 | 0.276 | 0.259 | 0.267 | 0.26
7 | EBC-1 | 0.961 | 0.291 | 0.176 | 0.177 | 0.107 | 0.0785 | 0.0877 | 0.075 |  |  |  |  |  |  |  |  |  |  |  | 
8 | NCI-H1792 | 0.633 | 0.82 | 0.565 | 0.242 |  |  |  |  | 0.894 | 0.886 | 0.748 | 0.538 | 0.728 | 0.561 | 0.586 | 0.362 | 1.05 | 0.629 | 1.02 | 0.51
9 | SW 900 |  |  |  |  | 1.1 | 0.898 | 0.866 | 0.366 | 0.652 | 0.533 | 0.438 | 0.385 | 0.584 | 0.598 | 0.642 | 0.374 | 0.497 | 0.495 | 0.461 | 0.445
10 | A549 | 0.973 | 0.0793 | 0.0636 | 0.068 | 0.87 | 0.118 | 0.131 | 0.0419 |  |  |  |  |  |  |  |  |  |  |  | 
11 | NCI-H1703 | 0.361 | 0.214 | 0.174 | 0.223 | 0.335 | 0.254 | 0.273 | 0.228 |  |  |  |  |  |  |  |  |  |  |  | 
12 | NCI-H1648 |  |  |  |  |  |  |  |  |  |  |  |  | 0.251 | 0.283 | 0.246 | 0.298 | 0.759 | 0.707 | 0.629 | 0.66
